US7833785B2, “Method for chemical dissociation of cells from physical surfaces” (priority 2004, dated 2010)
Where a name gives a salt, the structure may show the parent alone.

How the values were obtained:
[1] = test system: mouse neurospheres; assay: Different acidic neutralizing solutions after NaOH dissociation of mouse neurospheres; trypan blue exclusion, serial subculture; details: for Average Viable Cell Conc.: NaOH dissociation, acid as neutralizing solution; for Average Viable Cell Conc. / Average Cell Viability: n=3; for Average Cell Viability: trypan blue exclusion
Procedure: (§6) The viable cell concentration, viabilities, and fold increase in number of viable cells for mouse neurospheres exposed to different acidic neutralizing solutions following chemical dissociation. The aggregates were dissociated into a single cell suspension using an NaOH based dissociation solution. Acidic neutralizing solutions generated using a variety of acids (listed in table) were then added to counteract the high pH of the dissociation medium. Cell counts and viabilities were determined by trypan blue exclusion. Cells were serially subcultured for 4 passages in 25 cm^2 tissue culture flasks containing 5 mL of PPRF-m4 medium. The flasks were maintained in a humidified 37° C. incubator containing 5% CO2 (Average values, n=3).
(§7) All of the experiments conducted to test the effect of different neutralizing solutions employed an NaOH based dissociation medium to dissociate the cells.
(§8) Passage 3 mouse neurospheres originally procured from the striata of 14 day old embryonic mice were thawed and passaged twice (passage 5) in PPRF-m4 medium. These neuropsheres samples were previously dissociated by mechanical dissociation at each passage prior to being used for the experiments described here. Passage 5 mouse neurospheres were isolated and centrifuged (10 minutes, 140 g) to form a cell pellet in a 15 mL centrifuge tube. The supernatant was completely removed. The aggregates were then resuspended in 200 μL of fresh PPRF-m4 medium at room temperature by pipetting the cell pellet 5 times. 200 μL of an NaOH based alkaline dissociation medium was then added to the tube, and a stopwatch was used to time the procedure for 7 minutes. After 2 minutes and 5 minutes had elapsed, the cells were gently pipetted 5 times. After 7 minutes had elapsed, 200 μL of an acidic neutralizing medium was added to the mixture to decrease the pH, and the sample was gently pipetted 5 more times. […] The cell concentration and viability of the resulting cell suspension was determined using trypan blue exclusion, and the single cells were inoculated at 7.5×10^5 cells/mL into 25 cm^2 tissue culture flasks to determine if the neutralizing solution inhibited the cells from proliferating (Table 3). The cells were subsequently serially subcultured using the same neutralizing solution to which they had previously been exposed.

[2] = test system: mouse neurospheres; assay: Dissociation of mouse neurospheres using different alkaline solutions; trypan blue exclusion, serial subculture; details: for Average Viable Cell Conc.: base in PPRF-m4, neutralized with HCl; for Average Viable Cell Conc. / Average Cell Viability: n=3; for Fold Increase in number of viable cells: inoculated at 0.75×10^5 cells/mL; for Average Cell Viability: trypan blue exclusion
Procedure: (§1) Table 2. […] Following dissociation, the pH was reduced by using neutralizing solution generated using HCl.
(§2) In order to counteract the pH effect of the alkaline dissociation solutions on the cells, an appropriate quantity of acidic medium was added.
(§3) The supernatant was completely removed. […] A volume of 200 μL was added to those samples dissociated with sodium hydroxide, potassium hydroxide or sodium phosphate tribasic dodecahydrate. A volume of 300 μL was added to those samples dissociated using ammonium hydroxide. […] Following the addition of the acidic medium, the cell sample was gently pipetted 5 more times.

[3] = test system: mouse embryonic stem cells; assay: Detachment and dissociation of mouse embryonic stem cells using different bases in PBS with 10 mM EDTA; trypan blue exclusion; details: for Average Viable Cell Conc.: base in 1×PBS with 10 mM EDTA; for Average Viable Cell Conc. / Average Cell Viability: n=3; for Fold Increase in number of viable cells: inoculated at 3.13×10^4 cells/mL; for Average Cell Viability: trypan blue exclusion
Procedure: (§4) A total of five different dissociation solutions were tested for their ability to detach and dissociate mouse embryonic stem cells. Each solution was made by adding a different base to a basal solution (1×PBS solution containing 10 mM EDTA).
(§5) A volume of 2.0 mL of the appropriate dissociation solution was then added to each 25 cm^2 tissue culture flask, and the flasks were placed in an incubator at 37° C. The flasks were rocked intermittently over a period of 22 minutes after which gentle pipetting was used to break up any remaining clumps of cells. The cell suspension was collected and added to a sterile 15 mL tube containing 5.0 mL of medium and then centrifuged for 5 minutes at 1000 rpm. […] After centrifugation, the supernatant was discarded and the pellet was resuspended in 1.0 mL of medium.

[4] = in vitro; details: mouse, Average Cell Viability
Procedure: as §6, §7, §8

[5] = in vitro; details: mouse, Average Cell Viability; remark: listed apart in the source
Procedure: as §1, §2, §3

[6] = in vitro; details: mouse, Average Cell Viability; remark: listed apart in the source
Procedure: as §4, §5

Cl [HCl, hydrochloric acid]
Fold Increase in number of viable cells ([1]; passage 1): 14 | Average Viable Cell Conc. ([1]; passage 1): 10.9 10^5 cells/mL | Average Cell Viability ([1]; passage 1): 91% | Fold Increase in number of viable cells ([1]; passage 2): 17 | Average Viable Cell Conc. ([1]; passage 2): 12.7 10^5 cells/mL | Average Cell Viability ([1]; passage 2): 92% | Fold Increase in number of viable cells ([1]; passage 3): 12 | Average Viable Cell Conc. ([1]; passage 3): 9.0 10^5 cells/mL | Average Cell Viability ([1]; passage 3): 92% | Fold Increase in number of viable cells ([1]; passage 4): 14 | Average Viable Cell Conc. ([1]; passage 4): 10.2 10^5 cells/mL | Average Cell Viability ([1]; passage 4): 89%

[K+].[OH-] [KOH, potassium hydroxide]
Average Viable Cell Conc. ([2]; passage 1): 7.1 10^5 cells/mL | Fold Increase in number of viable cells ([2]; passage 1): 9.4 | Average Cell Viability ([2]; passage 1): 81% | Average Viable Cell Conc. ([2]; passage 2): 8.7 10^5 cells/mL | Fold Increase in number of viable cells ([2]; passage 2): 12 | Average Cell Viability ([2]; passage 2): 85% | Average Viable Cell Conc. ([2]; passage 3): 13.9 10^5 cells/mL | Fold Increase in number of viable cells ([2]; passage 3): 18 | Average Cell Viability ([2]; passage 3): 9% | Average Viable Cell Conc. ([2]; passage 4): 19.0 10^5 cells/mL | Fold Increase in number of viable cells ([2]; passage 4): 25 | Average Cell Viability ([2]; passage 4): 93% | Average Viable Cell Conc. ([3]; passage 1): 4.3 10^5 cells/mL | Fold Increase in number of viable cells ([3]; passage 1): 14 | Average Cell Viability ([3]; passage 1): 89% | Average Viable Cell Conc. ([3]; passage 2): 1.8 10^5 cells/mL | Fold Increase in number of viable cells ([3]; passage 2): 6 | Average Cell Viability ([3]; passage 2): 86% | Average Viable Cell Conc. ([3]; passage 3): 3.2 10^5 cells/mL | Fold Increase in number of viable cells ([3]; passage 3): 10 | Average Cell Viability ([3]; passage 3): 81% | Average Viable Cell Conc. ([3]; passage 4): 4.4 10^5 cells/mL | Fold Increase in number of viable cells ([3]; passage 4): 14 | Average Cell Viability ([3]; passage 4): 81%

[Na+].[OH-] [NaOH, sodium hydroxide]
Average Viable Cell Conc. ([2]; passage 1): 8.7 10^5 cells/mL | Fold Increase in number of viable cells ([2]; passage 1): 12 | Average Viable Cell Conc. ([2]; passage 2): 12.9 10^5 cells/mL | Fold Increase in number of viable cells ([2]; passage 2): 17 | Average Viable Cell Conc. ([2]; passage 3): 8.8 10^5 cells/mL | Fold Increase in number of viable cells ([2]; passage 3): 12 | Average Viable Cell Conc. ([2]; passage 4): 13.9 10^5 cells/mL | Fold Increase in number of viable cells ([2]; passage 4): 18 | Average Viable Cell Conc. ([3]; passage 1): 3.6 10^5 cells/mL | Fold Increase in number of viable cells ([3]; passage 1): 12 | Average Viable Cell Conc. ([3]; passage 2): 6.2 10^5 cells/mL | Fold Increase in number of viable cells ([3]; passage 2): 20 | Average Viable Cell Conc. ([3]; passage 3): 7.5 10^5 cells/mL | Fold Increase in number of viable cells ([3]; passage 3): 24 | Average Viable Cell Conc. ([3]; passage 4): 5.7 10^5 cells/mL | Fold Increase in number of viable cells ([3]; passage 4): 18

O=C([O-])[O-].[Na+].[Na+] [Sodium Carbonate, sodium carbonate]
Average Viable Cell Conc. ([2]; passage 1): 7.7 10^5 cells/mL | Average Viable Cell Conc. ([2]; passage 2): 11.4 10^5 cells/mL | Average Viable Cell Conc. ([2]; passage 3): 11.1 10^5 cells/mL | Average Viable Cell Conc. ([2]; passage 4): 8.7 10^5 cells/mL | Average Viable Cell Conc. ([3]; passage 1): 3.7 10^5 cells/mL | Average Viable Cell Conc. ([3]; passage 2): 3.6 10^5 cells/mL | Average Viable Cell Conc. ([3]; passage 3): 7.7 10^5 cells/mL | Average Viable Cell Conc. ([3]; passage 4): 6.8 10^5 cells/mL

O=P(O)(O)O [Phosphoric Acid, phosphoric acid]
viability [4]: 91% | Fold Increase in number of viable cells ([1]; passage 1): 15 | Average Viable Cell Conc. ([1]; passage 1): 11.5 10^5 cells/mL | Fold Increase in number of viable cells ([1]; passage 2): 23 | Average Viable Cell Conc. ([1]; passage 2): 17.3 10^5 cells/mL | Fold Increase in number of viable cells ([1]; passage 3): 6 | Average Viable Cell Conc. ([1]; passage 3): 4.2 10^5 cells/mL | Fold Increase in number of viable cells ([1]; passage 4): 16 | Average Viable Cell Conc. ([1]; passage 4): 11.8 10^5 cells/mL

N [Ammonium Hydroxide, ammonium hydroxide]
viability at 7 min, 23.8 mM [5]: 91% | Average Viable Cell Conc. ([2]; passage 1): 6.2 10^5 cells/mL | Fold Increase in number of viable cells ([2]; passage 1): 8 | Average Viable Cell Conc. ([2]; passage 2): 8.4 10^5 cells/mL | Fold Increase in number of viable cells ([2]; passage 2): 11 | Average Viable Cell Conc. ([2]; passage 3): 10.5 10^5 cells/mL | Fold Increase in number of viable cells ([2]; passage 3): 14 | Average Viable Cell Conc. ([2]; passage 4): 9.1 10^5 cells/mL | Fold Increase in number of viable cells ([2]; passage 4): 12 | viability at 22 min, 9.9 mM [6]: 84% | Average Viable Cell Conc. ([3]; passage 1): 4.1 10^5 cells/mL | Fold Increase in number of viable cells ([3]; passage 1): 13 | Average Viable Cell Conc. ([3]; passage 2): 1.4 10^5 cells/mL | Fold Increase in number of viable cells ([3]; passage 2): 4 | Average Viable Cell Conc. ([3]; passage 3): 2.7 10^5 cells/mL | Fold Increase in number of viable cells ([3]; passage 3): 8 | Average Viable Cell Conc. ([3]; passage 4): 5.1 10^5 cells/mL | Fold Increase in number of viable cells ([3]; passage 4): 16

CC(=O)O [Acetic Acid, acetic acid]
viability [4]: 91% | Fold Increase in number of viable cells ([1]; passage 1): 13 | Average Viable Cell Conc. ([1]; passage 1): 9.6 10^5 cells/mL | Fold Increase in number of viable cells ([1]; passage 2): 20 | Average Viable Cell Conc. ([1]; passage 2): 14.3 10^5 cells/mL | Fold Increase in number of viable cells ([1]; passage 3): 10 | Average Viable Cell Conc. ([1]; passage 3): 7.2 10^5 cells/mL | Fold Increase in number of viable cells ([1]; passage 4): 17 | Average Viable Cell Conc. ([1]; passage 4): 12.8 10^5 cells/mL

O=S(=O)(O)O [Sulfuric Acid, sulfuric acid]
viability [4]: 89% | Fold Increase in number of viable cells ([1]; passage 1): 14 | Average Viable Cell Conc. ([1]; passage 1): 10.5 10^5 cells/mL | Fold Increase in number of viable cells ([1]; passage 2): 18 | Average Viable Cell Conc. ([1]; passage 2): 13.1 10^5 cells/mL | Fold Increase in number of viable cells ([1]; passage 3): 8 | Average Viable Cell Conc. ([1]; passage 3): 6.1 10^5 cells/mL | Fold Increase in number of viable cells ([1]; passage 4): 15 | Average Viable Cell Conc. ([1]; passage 4): 11.3 10^5 cells/mL

O.O.O.O.O.O.O.O.O.O.O.O.O=P([O-])([O-])[O-].[Na+].[Na+].[Na+] [Sodium Phosphate, sodium phosphate tribasic dodecahydrate]
Average Viable Cell Conc. ([2]; passage 1): 11.5 10^5 cells/mL | Fold Increase in number of viable cells ([2]; passage 1): 15 | Average Cell Viability ([2]; passage 1): 87% | Average Viable Cell Conc. ([2]; passage 2): 7.3 10^5 cells/mL | Fold Increase in number of viable cells ([2]; passage 2): 10 | Average Cell Viability ([2]; passage 2): 89% | Average Viable Cell Conc. ([2]; passage 3): 13.9 10^5 cells/mL | Fold Increase in number of viable cells ([2]; passage 3): 18 | Average Cell Viability ([2]; passage 3): 89% | Average Viable Cell Conc. ([2]; passage 4): 10.2 10^5 cells/mL | Fold Increase in number of viable cells ([2]; passage 4): 14 | Average Cell Viability ([2]; passage 4): 93% | Average Viable Cell Conc. ([3]; passage 1): 4.2 10^5 cells/mL | Fold Increase in number of viable cells ([3]; passage 1): 14 | Average Cell Viability ([3]; passage 1): 88% | Average Viable Cell Conc. ([3]; passage 2): 2.0 10^5 cells/mL | Fold Increase in number of viable cells ([3]; passage 2): 6 | Average Cell Viability ([3]; passage 2): 91% | Average Viable Cell Conc. ([3]; passage 3): 4.1 10^5 cells/mL | Fold Increase in number of viable cells ([3]; passage 3): 13 | Average Cell Viability ([3]; passage 3): 87% | Average Viable Cell Conc. ([3]; passage 4): 6.7 10^5 cells/mL | Fold Increase in number of viable cells ([3]; passage 4): 21 | Average Cell Viability ([3]; passage 4): 84%
